pIC50: −log10 of the molar value. In brackets after ≈: the same amount, converted by molar mass.
How the values were obtained:
[1] = test system: Enterococcus faecalis; assay: Antibacterial activity against Enterococcus faecalis 1; format: functional
[2] = test system: Staphylococcus aureus; assay: Antibacterial activity against Staphylococcus aureus Oxford; format: functional
[3] = target: Methionine--tRNA ligase (Staphylococcus aureus subsp. aureus MW2, UniProt Q8NY00); assay: Inhibitory concentration against Staphylococcus aureus methionyl tRNA synthetase
[4] = test system: Staphylococcus epidermidis; assay: Concentration required to inhibit 90% population of Staphylococcus epidermidis; format: functional
[5] = test system: Enterococcus faecium; assay: Concentration required to inhibit 90% population of Enterococcus faecium; format: functional
[6] = test system: Enterococcus faecalis; assay: Concentration required to inhibit 90% population of Enterococcus faecalis; format: functional
[7] = test system: Staphylococcus aureus; assay: Concentration required to inhibit 90% population of Staphylococcus aureus; format: functional

| MIC [1] [µg/mL] | MIC [2] [µg/mL] | pIC50 [3] | MIC90 [4] [µg/mL] | MIC90 [5] [µg/mL] | MIC90 [6] [µg/mL] | MIC90 [7] [µg/mL] | Structure (SMILES) |
| --- | --- | --- | --- | --- | --- | --- | --- |
| 0.25 (≈ 0.541 µM) | 0.5 (≈ 1.08 µM) | 7.27 |  |  |  |  | N#Cc1c(NCCCNCc2cc(Br)cc(Br)c2)[nH]c2ccccc12 |
| 0.25 (≈ 0.497 µM) | ≤ 0.06 | 7.77 |  |  |  |  | CCc1cc(I)c2c(c1)C(NCCCNc1nc(O)c3ccccc3n1)CCN2 (centres undefined) |
| ≤ 0.06 | 0.13 (≈ 0.252 µM) | 8.31 |  |  |  |  | CCOc1c(Br)cc(Br)cc1CNCCCNc1nc(O)c2sccc2n1 |
| ≤ 0.06 | ≤ 0.06 | 8.20 |  |  |  |  | Brc1cc(Br)c2c(c1)[C@H](NCCCNc1nc3ncccc3[nH]1)CCN2 |
| 0.25 (≈ 0.518 µM) | 1 (≈ 2.07 µM) | 7.77 |  |  |  |  | CCOc1c(Br)cc(Br)cc1CNCCCNc1nc2ccccc2[nH]1 |
| ≤ 0.06 | ≤ 0.06 | > 8.52 |  |  |  |  | Oc1nc(NCCCNC2CCNc3c(Cl)cc(Br)cc32)nc2ccsc12 (centres undefined) |
| ≤ 0.06 | 0.25 (≈ 0.536 µM) | 8.09 |  |  |  |  | Oc1nc(NCCCNCc2cc(Br)cc(Br)c2)nc2ccccc12 |
| 0.5 (≈ 1.27 µM) | 2 (≈ 5.08 µM) | > 8.52 |  |  |  |  | CCOc1c(Cl)cc(Cl)cc1CNCCCNc1nc2ccccc2[nH]1 |
| 0.5 (≈ 1.14 µM) | 1 (≈ 2.28 µM) | 8.42 |  |  |  |  | CCOc1c(Br)cc(Cl)cc1CNCCCNc1nc2ccccc2[nH]1 |
| ≤ 0.06 | ≤ 0.06 | 7.96 | 0.5 (≈ 1.04 µM) | 0.03 (≈ 0.0625 µM) | 0.06 (≈ 0.125 µM) | 1 (≈ 2.08 µM) | Brc1cc(Br)c2c(c1)C(NCCCNc1nc3ncccc3[nH]1)CCN2 (centres undefined) |
| ≤ 0.06 | ≤ 0.06 | 8.09 |  |  |  |  | Oc1nc(NCCCNC2CCNc3c(Cl)cc(Br)cc32)nc2ccccc12 (centres undefined) |
| 1 (≈ 2.1 µM) | 0.5 (≈ 1.05 µM) | 7.80 |  |  |  |  | CCc1cc(I)c2c(c1)C(NCCCNc1nc3ccccc3[nH]1)CCN2 (centres undefined) |
| 0.5 (≈ 0.982 µM) | ≤ 0.06 | > 8.52 |  |  |  |  | CCc1cc(I)c2c(c1)C(NCCCNc1nc(O)c3sccc3n1)CCN2 (centres undefined) |
| 0.13 (≈ 0.297 µM) | 1 (≈ 2.28 µM) | 7.54 |  |  |  |  | Brc1cc(Br)cc(CNCCCNc2nc3ccccc3[nH]2)c1 |
| ≤ 0.06 | 0.25 (≈ 0.522 µM) | 7.89 |  |  |  |  | Brc1cc(Br)c2c(c1)C(NCCCNc1nc3ccccc3[nH]1)CCN2 (centres undefined) |
| ≤ 0.06 | 0.5 (≈ 1.06 µM) | 8.41 |  |  |  |  | O=c1nc(NCCCNCc2cc(Br)cc(Br)c2)[nH]c2ccsc12 |
| 1 (≈ 2.1 µM) | 0.25 (≈ 0.525 µM) | 7.74 |  |  |  |  | CCc1cc(I)c2c(c1)C(NCCCNc1nc3ccc[nH]c-3n1)CCN2 (centres undefined) |
| 0.13 (≈ 0.3 µM) | 1 (≈ 2.31 µM) | 7.77 |  |  |  |  | CCOc1c(Br)cc(OC)cc1CNCCCNc1nc2ccccc2[nH]1 |
| ≤ 0.06 | 0.13 (≈ 0.255 µM) | 8.01 |  |  |  |  | CCOc1c(Br)cc(Br)cc1CNCCCNc1nc2ccccc2c(=O)[nH]1 |
| ≤ 0.06 | ≤ 0.06 | 7.89 |  |  |  |  | Oc1nc(NCCCNC2CCNc3c(Br)cc(Br)cc32)nc2ccsc12 (centres undefined) |
| 0.25 (≈ 0.569 µM) | 0.5 (≈ 1.14 µM) | 8.30 |  |  |  |  | Brc1cc(Br)cc(CNCCCNc2nc3ccc[nH]c-3n2)c1 |

The remaining lines, values behind:

| Structure (SMILES) | MIC [1] [µg/mL] | MIC [2] [µg/mL] | pIC50 [3] | MIC90 [4] [µg/mL] | MIC90 [5] [µg/mL] | MIC90 [6] [µg/mL] | MIC90 [7] [µg/mL] |
| --- | --- | --- | --- | --- | --- | --- | --- |
| CCOc1c(Br)cc(OC)cc1CNCCCNc1nc(O)c2ccccc2n1 | ≤ 0.06 | 0.13 (≈ 0.282 µM) | 8.15 |  |  |  |  |
| Oc1cc(-c2ccccc2)nc(NCCCNCc2cc(Br)cc(Br)c2)n1 | > 64 | > 64 | < 6.00 |  |  |  |  |
| Oc1cc(OCCCNCc2ccc(Cl)c(Cl)c2)nc2ccccc12 |  | 32 (≈ 84.8 µM) | 7.42 |  |  |  |  |
| CCOc1c(Br)cc(OC)cc1CNCCCNc1nc(O)c2sccc2n1 | ≤ 0.06 | 0.25 (≈ 0.535 µM) | 8.48 |  |  |  |  |
| CCOc1c(Br)cc(Cl)cc1CNCCCNc1nc(O)c2sccc2n1 | 0.13 (≈ 0.276 µM) | 0.13 (≈ 0.276 µM) | > 8.52 |  |  |  |  |
| CCOc1c(Cl)cc(Cl)cc1CNCCCNc1nc(O)c2ccccc2n1 | ≤ 0.06 | 0.13 (≈ 0.309 µM) | > 8.52 |  |  |  |  |
| Oc1nc(NCCCNCc2cc(Br)cc(Br)c2)nc2c1CCC2 | > 64 | > 64 | 6.24 |  |  |  |  |
| Oc1nc(NCCCNCc2cc(Br)cc(Br)c2)nc2sccc12 | 32 (≈ 67.8 µM) | > 64 | 6.82 |  |  |  |  |
| Oc1cc(SCCCNCc2ccc(Cl)c(Cl)c2)nc2ccccc12 |  | > 64 | 6.17 |  |  |  |  |
| Clc1cc(Cl)c(Cl)c(CNCCCNc2ccc3ccccc3n2)c1 |  |  | 7.00 |  |  |  |  |
| CCOc1c(Br)cc(Cl)cc1CNCCCNc1nc(O)c2ccccc2n1 | ≤ 0.06 | 0.13 (≈ 0.279 µM) | > 8.52 |  |  |  |  |
| CCOc1c(Cl)cc(Cl)cc1CNCCCNc1nc(O)c2sccc2n1 | 0.13 (≈ 0.304 µM) | 0.25 (≈ 0.585 µM) | > 8.52 |  |  |  |  |
| Oc1cc(NCCCNCc2cc(Br)cc(Br)c2)nc2ccsc12 | ≤ 0.06 | 0.13 (≈ 0.276 µM) | 8.40 |  |  |  |  |
| Oc1cc(NCCCNCc2cc(Br)cc(Br)c2)nc2sccc12 | ≤ 0.06 | 0.25 (≈ 0.531 µM) | 8.21 |  |  |  |  |
| O=c1cc(NCCCNCc2cc(Cl)cc(Cl)c2Cl)oc2ccccc12 |  |  | 6.00 |  |  |  |  |
| O=C(NCCCNCc1cc(Br)cc(Br)c1)Nc1ccccc1 | 8 (≈ 18.1 µM) | > 64 | 6.48 |  |  |  |  |
| Oc1cc(NCCCNCc2cc(Cl)cc(Cl)c2Cl)cc2ccccc12 |  |  | 5.74 |  |  |  |  |
| Oc1cc(NCCCNCc2cc(Cl)cc(Cl)c2Cl)nc2ccccc12 |  |  | > 8.52 |  |  |  |  |
| Oc1cc(NCCCNCc2cc(Br)cc(Br)c2)nc2ccccc12 | ≤ 0.06 | 0.25 (≈ 0.537 µM) | > 8.52 |  |  |  |  |

Reference: ChEMBL document CHEMBL1137118, “Definition of the heterocyclic pharmacophore of bacterial methionyl tRNA synthetase inhibitors: potent antibacterially active non-quinolone analogues” (Bioorg Med Chem Lett, 2004)
